Reference: patent US20200207734A1, “HETEROCYCLIC COMPOUND AND USE THEREOF” (Takeda Pharmaceutical Company Limited, priority 2017, published 2020)
One block for each compound: values may come before it.

Target: T1, human orexin type 2 receptor (Homo sapiens, UniProt O43614)
T1 construct: human orexin type 2 receptor cDNA was inserted into pcDNA3.1(+) plasmid vector (Invitrogen); expressed in transfected cells
T1 sequence (O43614 1-444): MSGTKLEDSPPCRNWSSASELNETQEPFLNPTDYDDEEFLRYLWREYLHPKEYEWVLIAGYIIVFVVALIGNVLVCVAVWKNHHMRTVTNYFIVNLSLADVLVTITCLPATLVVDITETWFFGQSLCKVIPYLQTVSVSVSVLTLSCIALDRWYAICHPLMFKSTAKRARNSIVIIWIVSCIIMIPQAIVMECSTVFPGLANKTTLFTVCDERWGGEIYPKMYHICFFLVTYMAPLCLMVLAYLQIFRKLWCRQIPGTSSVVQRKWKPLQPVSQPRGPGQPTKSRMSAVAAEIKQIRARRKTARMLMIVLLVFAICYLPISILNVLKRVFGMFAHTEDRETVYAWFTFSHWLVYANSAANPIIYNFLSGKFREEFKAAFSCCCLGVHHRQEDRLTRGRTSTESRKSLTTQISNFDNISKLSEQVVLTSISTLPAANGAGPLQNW
Assay: Measurement of orexin type 2 receptor agonist activity (calcium fluorescence, CHO cells expressing hOX2R)
Assay type: cell-based
Conditions: test compound 3 μM; CHO cells expressing human OX2 receptor; DMSO = 0%, orexin A (human) = 100%
Source text: To obtain a cell clone stably expressing human orexin type 2 receptor, human orexin type 2 receptor cDNA was inserted into pcDNA3.1(+) plasmid vector (Invitrogen), and a plasmid DNA for expression of human orexin type 2 receptor (pcDNA3.1(+)/hOX2R) was cloned. The plasmid DNA was introduced into CHO-dhfr cell by an electroporation method, and human orexin type 2 receptor expressing clone cells were obtained by limiting dilution method by using G418 drug resistance as a selection marker.
CHO cells forcibly expressing human OX2 receptor were seeded in each well of 384 well black transparent bottom plate (BD Falcon) at 7,500 cells/well, and cultured for one day in a 5% CO2 incubator at 37° C. After removal of the medium in the cell plate, assay buffer A containing a calcium indicator (HBSS (Thermo Fisher Scientific), 20 mM HEPES (Thermo Fisher Scientific), 0.1% BSA (Wako Pure Chemical Industries, Ltd. or Sigma-Aldrich), 2.5 μg/mL Fluo-4 AM (DOJINDO Chemical), 0.08% Pluronic F127 (DOJINDO Chemical), 1.25 mM probenecid (DOJINDO Chemical)) was added at 30 μL/well. The plate was stood for 30 min in a 5% CO2 incubator at 37° C., and further stood at room temperature for 30 min. A test compound prepared by diluting with assay buffer B (HBSS, 20 mM HEPES, 0.1% BSA) was added at 10 μL/well, and the fluorescence value was measured by FDSSμCELL (Hamamatsu Photonics K.K.) every one sec for 1 min, and thereafter every two sec for 1 min 40 sec. The activity (%) of the test compound was calculated assuming that variation in the fluorescence value when DMSO was added instead of the test compound was 0%, and variation in the fluorescence value when orexin A (human) (PEPTIDE INSTITUTE, INC.) was added at the final concentration of 10 nM was 100%.

OX2R agonist activity (3 μM, %): 97%
Compound: CC(C)C(=O)N1CCC[C@H](NS(C)(=O)=O)[C@@H]1Cc1cccc(-c2ccccc2)c1 (relative stereo) [Example 95, N-(cis-2-(biphenyl-3-ylmethyl)-1-isobutyrylpiperidin-3-yl)methanesulfonamide]

OX2R agonist activity (3 μM, %): 69%
Compound: CS(=O)(=O)N[C@H]1CCN(C(=O)OC2CC2)[C@H]1Cc1cccc(-c2ccccc2)c1 (relative stereo) [Example 108, cyclopropyl cis-2-(biphenyl-3-ylmethyl)-3-((methylsulfonyl)amino)pyrrolidine-1-carboxylate]

OX2R agonist activity (3 μM, %): 90%
Compound: CS(=O)(=O)N[C@H]1CCCN(C(=O)OC2CC2)[C@H]1Cc1cccc(-c2ccccc2)c1 (relative stereo) [Example 126, cyclopropyl cis-2-(biphenyl-3-ylmethyl)-3-((methylsulfonyl)amino)piperidine-1-carboxylate]

OX2R agonist activity (3 μM, %): 24%
Compound: CS(=O)(=O)N[C@H]1CCCN(C(=O)Oc2ccccc2)[C@H]1Cc1cccc(-c2ccccc2)c1 (relative stereo) [Example 145, phenyl cis-2-(biphenyl-3-ylmethyl)-3-((methylsulfonyl)amino)piperidine-1-carboxylate]

OX2R agonist activity (3 μM, %): 95%
Compound: CN(C)C(=O)N1CCC[C@H](NS(C)(=O)=O)[C@@H]1Cc1cccc(-c2ccccc2)c1 (relative stereo) [Example 204, cis-2-(biphenyl-3-ylmethyl)-N,N-dimethyl-3-((methylsulfonyl)amino)piperidine-1-carboxamide]

OX2R agonist activity (3 μM, %): 94%
Compound: CS(=O)(=O)N[C@H]1CCN(C(=O)C2CC2)[C@H]1Cc1cccc(-c2ccccc2)c1 (relative stereo) [Example 206, N-(cis-2-(biphenyl-3-ylmethyl)-1-(cyclopropylcarbonyl)pyrrolidin-3-yl)methanesulfonamide]

OX2R agonist activity (3 μM, %): 106%
Compound: CC(C)C(=O)N1CC[C@H](NS(C)(=O)=O)[C@@H]1Cc1cccc(-c2ccccc2)c1 (relative stereo) [Example 209, N-(cis-2-(biphenyl-3-ylmethyl)-1-isobutyrylpyrrolidin-3-yl)methanesulfonamide]

OX2R agonist activity (3 μM, %): 99%
Compound: CC(C)(C)C(=O)N1CC[C@H](NS(C)(=O)=O)[C@@H]1Cc1cccc(-c2ccccc2)c1 (relative stereo) [Example 227, N-(cis-2-(biphenyl-3-ylmethyl)-1-(2,2-dimethylpropanoyl)pyrrolidin-3-yl)methanesulfonamide]

The remaining lines, values behind:

Compound: CC(C)OC(=O)N1CCC[C@H](NS(C)(=O)=O)[C@@H]1Cc1cccc(-c2cc(F)ccc2F)n1 (relative stereo) [Example 100, isopropyl cis-2-((6-(2,5-difluorophenyl)pyridin-2-yl)methyl)-3-((methylsulfonyl)amino)piperidine-1-carboxylate]
OX2R agonist activity (3 μM, %): 107%

Compound: CC(C)OC(=O)N1CCC[C@H](NS(C)(=O)=O)[C@@H]1Cc1cccc(-c2cccc(F)c2F)c1 (relative stereo) [Example 116, isopropyl cis-2-((2′,3′-difluorobiphenyl-3-yl)methyl)-3-((methylsulfonyl)amino)piperidine-1-carboxylate]
OX2R agonist activity (3 μM, %): 106%

Compound: CC(C)OC(=O)N1CCC[C@H](NS(C)(=O)=O)[C@@H]1Cn1ccc(-c2ccccc2)n1 (relative stereo) [Example 122, isopropyl cis-3-((methylsulfonyl)amino)-2-((3-phenyl-1H-pyrazol-1-yl)methyl)piperidine-1-carboxylate]
OX2R agonist activity (3 μM, %): 82%

Compound: COC(=O)N1CCC[C@H](NS(C)(=O)=O)[C@@H]1Cc1cccc(-c2ccsc2)c1 (relative stereo) [Example 159, methyl cis-3-((methylsulfonyl)amino)-2-(3-(3-thienyl)benzyl)piperidine-1-carboxylate]
OX2R agonist activity (3 μM, %): 65%

Compound: CCCS(=O)(=O)N[C@H]1CCCN(C(=O)OC(C)C)[C@H]1Cc1cccc(-c2ccccc2)n1 (relative stereo) [Example 173, isopropyl cis-2-((6-phenylpyridin-2-yl)methyl)-3-((propylsulfonyl)amino)piperidine-1-carboxylate]
OX2R agonist activity (3 μM, %): 68%

Compound: CC(C)OC(=O)N1CCC[C@H](NS(=O)(=O)C2CC2)[C@@H]1Cc1cccc(-c2ccccc2)n1 (relative stereo) [Example 178, isopropyl cis-3-((cyclopropylsulfonyl)amino)-2-((6-phenylpyridin-2-yl)methyl)piperidine-1-carboxylate]
OX2R agonist activity (3 μM, %): 99%

Compound: CC(C)OC(=O)N1CCC[C@H](NS(=O)(=O)CCl)[C@@H]1Cc1cccc(-c2ccccc2)n1 (relative stereo) [Example 181, isopropyl cis-3-(((chloromethyl)sulfonyl)amino)-2-((6-phenylpyridin-2-yl)methyl)piperidine-1-carboxylate]
OX2R agonist activity (3 μM, %): 100%

Compound: CC(C)OC(=O)N1CCC[C@H](NS(=O)(=O)N(C)C)[C@@H]1Cc1cccc(-c2ccccc2)n1 (relative stereo) [Example 185, isopropyl cis-3-((dimethylsulfamoyl)amino)-2-((6-phenylpyridin-2-yl)methyl)piperidine-1-carboxylate]
OX2R agonist activity (3 μM, %): 99%

Compound: C=C(C)c1cccc(C[C@H]2[C@@H](NS(=O)(=O)C3CC3)CCCN2C(=O)OC(C)C)n1 (relative stereo) [Example 191, isopropyl cis-3-((cyclopropylsulfonyl)amino)-2-((6-(prop-1-en-2-yl)pyridin-2-yl)methyl)piperidine-1-carboxylate]
OX2R agonist activity (3 μM, %): 79%

Compound: CC(C)OC(=O)N1CCC[C@H](NS(C)(=O)=O)[C@@H]1CC1CCCN(c2ccccc2)C1 (relative stereo) [Example 214, isopropyl cis-3-((methylsulfonyl)amino)-2-((1-phenylpiperidin-3-yl)methyl)piperidine-1-carboxylate]
OX2R agonist activity (3 μM, %): 70%

Compound: CS(=O)(=O)N[C@H]1CCN(C(=O)C2CCC2)[C@H]1Cc1csc(-c2cccc(F)c2)n1 (relative stereo) [Example 254, N-(cis-1-(cyclobutylcarbonyl)-2-((2-(3-fluorophenyl)-1,3-thiazol-4-yl)methyl)pyrrolidin-3-yl)methanesulfonamide]
OX2R agonist activity (3 μM, %): 101%

Compound: CS(=O)(=O)N[C@H]1CCN(C(=O)C2CCC2)[C@H]1Cc1csc(-c2ccccc2F)n1 (relative stereo) [Example 255, N-(cis-1-(cyclobutylcarbonyl)-2-((2-(2-fluorophenyl)-1,3-thiazol-4-yl)methyl)pyrrolidin-3-yl)methanesulfonamide]
OX2R agonist activity (3 μM, %): 101%

Compound: CS(=O)(=O)N[C@H]1CCN(C(=O)C2CCC2)[C@H]1Cc1csc(-c2cccc(F)c2F)n1 (relative stereo) [Example 256, N-(cis-1-(cyclobutylcarbonyl)-2-((2-(2,3-difluorophenyl)-1,3-thiazol-4-yl)methyl)pyrrolidin-3-yl)methanesulfonamide]
OX2R agonist activity (3 μM, %): 97%

Compound: CS(=O)(=O)N[C@H]1CCN(C(=O)C2CCC2)[C@H]1Cc1csc(-c2cc(F)cc(F)c2)n1 (relative stereo) [Example 258, N-(cis-1-(cyclobutylcarbonyl)-2-((2-(3,5-difluorophenyl)-1,3-thiazol-4-yl)methyl)pyrrolidin-3-yl)methanesulfonamide]
OX2R agonist activity (3 μM, %): 95%

Compound: O=C(C1CCC1)N1CC[C@H](NS(=O)(=O)C2CC2)[C@@H]1Cc1csc(-c2ccccc2)n1 (relative stereo) [Example 259, N-(cis-1-(cyclobutylcarbonyl)-2-((2-phenyl-1,3-thiazol-4-yl)methyl)pyrrolidin-3-yl)cyclopropanesulfonamide]
OX2R agonist activity (3 μM, %): 95%

Compound: O=C(C1CCC1)N1CC[C@H](NS(=O)(=O)CF)[C@@H]1Cc1csc(-c2ccccc2)n1 (relative stereo) [Example 269, N-(cis-1-(cyclobutylcarbonyl)-2-((2-phenyl-1,3-thiazol-4-yl)methyl)pyrrolidin-3-yl)-1-fluoromethanesulfonamide]
OX2R agonist activity (3 μM, %): 111%

Compound: CC(C)C(=O)N1CC[C@H](NS(C)(=O)=O)[C@@H]1Cc1cccc(-c2ccccc2)c1F (relative stereo) [Example 293, N-(cis-2-((2-fluorobiphenyl-3-yl)methyl)-1-isobutyrylpyrrolidin-3-yl)methanesulfonamide]
OX2R agonist activity (3 μM, %): 102%
